# Measurements from US11040028B2, “Penicinotam derivative, preparation method and use thereof” (OCEAN UNIVERSITY OF CHINA, priority 2017, dated 2021).
# Where two headings read alike, the source gives them in different places.
# How the values were obtained:
# Assay type in all cases: cell-based
# [1] = system: human dermal fibroblasts CCC-ESF-1; assay: Anti-fibrosis activity test: inhibition of proliferation of human dermal fibroblasts CCC-ESF-1 (CCK-8); conditions: Fibroblast
# Outline: (§1)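 Using CCK-8 colorimetry (450 nm), the study assessed growth inhibition after 48 h compound exposure; plating density was 2×10^4 cells/mL with 24 h attachment beforehand. IC50 was calculated from (1−Ai/Ao)×100%.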
# [2] = system: cardiac fibroblast RAT-iCell-C002; assay: Anti-fibrosis activity test: inhibition of proliferation of cardiac fibroblast RAT-iCell-C002 (CCK-8); conditions: Cardiac fibroblast, 48 h
# Outline: as §1
# [3] = system: human embryonic lung fibroblast IMR-90; assay: Anti-fibrosis activity test: inhibition of proliferation of human embryonic lung fibroblast IMR-90 (CCK-8)
# Outline: as §1
# BHK-21 cells = assay: Anti-fibrosis activity test: inhibition of BHK-21 cell proliferation (CCK-8); conditions: Mesocricetus auratus, BHK-21, 48 h
# Outline: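 Read-out: CCK-8 absorbance at 450 nm after 2 h, giving proliferation inhibition (1−Ai/Ao)×100% versus blank control, from which IC50 was derived. Cells had been treated with compounds for 48 h after 24 h adherence at 37° C. Pirfenidone served as positive control.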
# [4] = system: human hepatic stellate cells LX-2; assay: Anti-fibrosis activity test: inhibition of proliferation of human hepatic stellate cells LX-2 (CCK-8); conditions: Homo sapiens, 48 h
# Outline: as §1
# NF-κB = assay: Immunological activity test: inhibition of NF-κB activity; conditions: initial concentration of 30 μM; a/b isomers given as first/second symbol; read-out: IC50 (μM), inhibitory activity against NF-κB
# Outline: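 Initial screen at 30 μM; parthenolide positive control. IC50s derived from follow-up analysis.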
# [5] = system: mouse macrophages (RAW264.7); assay: Lipopolysaccharide-induced NO secretion in macrophages (Griess); conditions: RAW264.7, LPS 1 μg/ml, a/b isomers given as first/second symbol, read-out: IC50 (μM), inhibition of lipopolysaccharide-induced NO secretion in macrophages
# Outline: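 Indomethacin and resveratrol served as positive controls while compounds were tested across concentrations on LPS-stimulated (1 μg/ml, 24 h) RAW264.7 cells. NO output was quantified colorimetrically (Griess, 548 nm).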
# [6] = system: human lung fibroblasts HFL1; assay: Anti-fibrosis activity test: inhibition of proliferation of human lung fibroblasts HFL1 (CCK-8); conditions: Homo sapiens, HFL1, 48 h
# Outline: as §1
# [7] = system: human fibrosarcoma cells HT-1080; assay: Anti-fibrosis activity test: inhibition of proliferation of human fibrosarcoma cells HT-1080 (CCK-8); conditions: Homo sapiens, HT-1080, 48 h
# Outline: as §1
# [8] = human dermal fibroblasts CCC-ESF-1, CCK-8, 48 hours
# [9] = cardiac fibroblast RAT-iCell-C002, CCK-8, 48 hours
# [10] = human embryonic lung fibroblast IMR-90, CCK-8, 48 hours
# [11] = CCK-8, 48 hours after administration
# [12] = human hepatic stellate cells LX-2, CCK-8, 48 hours
# [13] = human lung fibroblasts HFL1, CCK-8, 48 hours
# [14] = human fibrosarcoma cells HT-1080, CCK-8, 48 hours
IC50 (NF-κB),"IC50 ([5]; Mus musculus, RAW264.7, 24 h)","IC50 [7, 14]",IC50 ([5]; 24 hours),"IC50 ([7]; HT-1080 cells, 48 h, CCK-8)",SMILES,"IC50 [1, 8]","IC50 [2, 9]","IC50 [3, 10]",IC50 (BHK-21 cells; [11]),"IC50 [4, 12]","IC50 [6, 13]","IC50 ([1]; Homo sapiens, CCC-ESF-1 cells, 48 h, CCK-8)","IC50 ([2]; RAT-iCell-C002 cells, CCK-8)","IC50 ([3]; Homo sapiens, IMR-90 cells, 48 h, CCK-8)","IC50 (BHK-21 cells; 48 h, CCK-8)","IC50 ([4]; LX-2, 48 h, LX-2 cells, CCK-8)","IC50 ([6]; HFL1 cells, 48 h, CCK-8)"
1 to 10 µM,1 to 10 µM,0.05 to 5 mM,,,"O=C(COc1c2c(nc3ccccc13)-c1cccn1C2=O)c1ccc(-c2ccccc2)cc1 [Compound 50b, 9-(2-([1,1′-biphenyl]-4-yl)-2-oxoethoxy)-10H-pyrrolizino[1,2-b]quinolin-10-one]",< 0.05 mM,5 to 20 mM,5 to 20 mM,0.05 to 5 mM,5 to 20 mM,0.05 to 5 mM,,,,,,
10 to 50 µM,,,0.1 to 1 µM,,"N#Cc1c(N2CCNCC2)ccc2c(=O)c3c(n(Cc4ccc(F)cc4)c12)-c1cccn1C3=O [Compound 486a, 4-(4-Fluorobenzyl)-9,10-dioxo-6-(piperazin-1-yl)-4,10-dihydro-9H-pyrrolizino[1,2-b]quinoline-5-carbonitrile]",,,,,,,,,,,,
1 to 10 µM,,,1 to 10 µM,,"N#Cc1c(N2CCNCC2)ccc2c(OCc3ccc(F)cc3)c3c(nc12)-c1cccn1C3=O [Compound 486b, 9-((4-fluorobenzyl)oxy)-10-oxo-6-(piperazin-1-yl)-10H-pyrrolizino[1,2-b]quinoline-5-carbonitrile]",,,,,,,,,,,,
1 to 10 µM,,,1 to 10 µM,,O=C1c2c(nc3ccccc3c2OCc2ccc(-c3ccccc3)cc2)-c2cccn21 [Compound 674b],,,,,,,,,,,,
0.001 to 0.1 µM,,,,0.05 to 5 mM,"Cc1ccc2c(O)c3c(nc2c1)-c1cccn1C3=O [Compound 714b, 9-hydroxy-6-methyl-10H-pyrrolizino[1,2-b]quinolin-10-one]",,,,,,,0.05 to 5 mM,0.05 to 5 mM,0.05 to 5 mM,0.05 to 5 mM,0.05 to 5 mM,0.05 to 5 mM

# The remaining lines, values behind:
SMILES,IC50 (NF-κB),"IC50 ([5]; Mus musculus, RAW264.7, 24 h)","IC50 [7, 14]",IC50 ([5]; 24 hours),"IC50 ([7]; HT-1080 cells, 48 h, CCK-8)","IC50 [1, 8]","IC50 [2, 9]","IC50 [3, 10]",IC50 (BHK-21 cells; [11]),"IC50 [4, 12]","IC50 [6, 13]","IC50 ([1]; Homo sapiens, CCC-ESF-1 cells, 48 h, CCK-8)","IC50 ([2]; RAT-iCell-C002 cells, CCK-8)","IC50 ([3]; Homo sapiens, IMR-90 cells, 48 h, CCK-8)","IC50 (BHK-21 cells; 48 h, CCK-8)","IC50 ([4]; LX-2, 48 h, LX-2 cells, CCK-8)","IC50 ([6]; HFL1 cells, 48 h, CCK-8)"
"C=CCn1c2c(c(=O)c3ccccc31)C(=O)n1cccc1-2 [Compound 6a, 4-Allyl-9H-pyrrolizino[1,2-b]quinoline-9,10(4H)-dione]",1 to 10 µM,1 to 10 µM,< 0.05 mM,,,0.05 to 5 mM,0.05 to 5 mM,0.05 to 5 mM,0.05 to 5 mM,0.05 to 5 mM,0.05 to 5 mM,,,,,,
"C=CCOc1c2c(nc3ccccc13)-c1cccn1C2=O [Compound 6b, 9-(allyloxy)-10H-pyrrolizino[1,2-b]quinolin-10-one]",1 to 10 µM,1 to 10 µM,0.05 to 5 mM,,,5 to 20 mM,0.05 to 5 mM,0.05 to 5 mM,0.05 to 5 mM,0.05 to 5 mM,0.05 to 5 mM,,,,,,
"C#CCn1c2c(c(=O)c3ccccc31)C(=O)n1cccc1-2 [Compound 7a, 4-(Prop-2-yn-1-yl)-9H-pyrrolizino[1,2-b]quinoline-9,10(4H)-dione]",1 to 10 µM,0.1 to 1 µM,0.05 to 5 mM,,,< 0.05 mM,0.05 to 5 mM,0.05 to 5 mM,< 0.05 mM,0.05 to 5 mM,0.05 to 5 mM,,,,,,
"C#CCOc1c2c(nc3ccccc13)-c1cccn1C2=O [Compound 7b, 9-(prop-2-yn-1-yloxy)-10H-pyrrolizino[1,2-b]quinolin-10-one]",1 to 10 µM,0.1 to 1 µM,0.05 to 5 mM,,,< 0.05 mM,0.05 to 5 mM,0.05 to 5 mM,0.05 to 5 mM,0.05 to 5 mM,0.05 to 5 mM,,,,,,
"O=C1c2c(n(CCO)c3ccccc3c2=O)-c2cccn21 [Compound 11a, 4-(2-Hydroxyethyl)-9H-pyrrolizino[1,2-b]quinoline-9,10(4H)-dione]",1 to 10 µM,1 to 10 µM,0.05 to 5 mM,,,0.05 to 5 mM,0.05 to 5 mM,0.05 to 5 mM,0.05 to 5 mM,0.05 to 5 mM,0.05 to 5 mM,,,,,,
"O=C1c2c(nc3ccccc3c2OCCO)-c2cccn21 [Compound 11b, 9-(2-hydroxyethoxy)-10H-pyrrolizino[1,2-b]quinolin-10-one]",1 to 10 µM,1 to 10 µM,0.05 to 5 mM,,,0.05 to 5 mM,0.05 to 5 mM,0.05 to 5 mM,0.05 to 5 mM,0.05 to 5 mM,0.05 to 5 mM,,,,,,
"CN(C)CCn1c2c(c(=O)c3ccccc31)C(=O)n1cccc1-2 [Compound 12a, 4-(2-(Dimethylamino)ethyl)-9H-pyrrolizino[1,2-b]quinoline-9,10(4H)-dione]",1 to 10 µM,1 to 10 µM,0.05 to 5 mM,,,0.05 to 5 mM,0.05 to 5 mM,0.05 to 5 mM,0.05 to 5 mM,0.05 to 5 mM,0.05 to 5 mM,,,,,,
"CN(C)CCOc1c2c(nc3ccccc13)-c1cccn1C2=O [Compound 12b, 9-(2-(dimethylamino)ethoxy)-10H-pyrrolizino[1,2-b]quinolin-10-one]",1 to 10 µM,1 to 10 µM,0.05 to 5 mM,,,0.05 to 5 mM,0.05 to 5 mM,0.05 to 5 mM,0.05 to 5 mM,0.05 to 5 mM,0.05 to 5 mM,,,,,,
"O=C1c2c(n(CCCO)c3ccccc3c2=O)-c2cccn21 [Compound 16a, 4-(3-Hydroxypropyl)-9H-pyrrolizino[1,2-b]quinoline-9,10(4H)-dione]",1 to 10 µM,1 to 10 µM,0.05 to 5 mM,,,0.05 to 5 mM,0.05 to 5 mM,0.05 to 5 mM,0.05 to 5 mM,0.05 to 5 mM,0.05 to 5 mM,,,,,,
"O=C1c2c(nc3ccccc3c2OCCCO)-c2cccn21 [Compound 16b, 9-(3-hydroxypropoxy)-10H-pyrrolizino[1,2-b]quinolin-10-one]",1 to 10 µM,1 to 10 µM,0.05 to 5 mM,,,0.05 to 5 mM,0.05 to 5 mM,0.05 to 5 mM,0.05 to 5 mM,0.05 to 5 mM,0.05 to 5 mM,,,,,,
"O=C(Cn1c2c(c(=O)c3ccccc31)C(=O)n1cccc1-2)c1ccc(-c2ccccc2)cc1 [Compound 50a, 4-(2-([1,1′-Biphenyl]-4-yl)-2-oxoethyl)-9H-pyrrolizino[1,2-b]quinoline-9,10(4H)-dione]",1 to 10 µM,1 to 10 µM,0.05 to 5 mM,,,0.05 to 5 mM,5 to 20 mM,5 to 20 mM,0.05 to 5 mM,5 to 20 mM,0.05 to 5 mM,,,,,,
